Assay results from US20250186485A1, “HYDRATION COMPOSITIONS” (priority 2017, published 2025).
Like-named read-outs stand apart in the source and are kept apart here.

Experiments:
[1] = test system: patients with disabling intermittent claudication or rest pain of the lower extremities
From the text: (§1) Dehydration often occurs in elderly population. Incidence of peripheral artery disease in patients over 60 years of age ranges between 18 and 29%. It was hypothesized that dehydration aggravates symptoms of PAD. Patients with disabling claudication or rest pain resistant to standard medical therapy were instructed to drink between 2,500 to 3000 milliliters of water according to their body mass.
(§2) Patients without a past history of Congestive Heart Failure or renal insufficiency were included in the following example without interrupting exercises they were performing or medication they were receiving. Ninety percent of the patients were receiving aspirin and 100% of them Statins and Cilostazol at least for 5 months before starting the protocol. (See Table 2 below.)
(§3) All patients belonged to category IIb of Fontaine and grade 1 category 2 and 3 of Rutherford.
(§4) Protocol: Complete physical examination and laboratory work were performed. Ankle-brachial pressures were recorded. • 1) Graphics of skin temperature were obtained in both feet using a Flir Thermal Camera (Flir Systems Inc.) in a room at 24 degrees Celsius. (See FIGS. 3 and 4) • 2) Time and distance to claudication using a treadmill at 3 miles per hour was recorded. • 3) Subjective classification of pain intensity from […] was documented. (0=no pain, 10=intense pain) • 4) Skin color-including the absence and/or reduction in abnormal variations in skin color, skin tone and skin elasticity.
(§5) Duplex of the abdominal artery, iliac arteries and infra-inguinal vessels was performed in every patient. Patients were followed weekly and underwent regular blood tests. Patients were recommended to drink 3,000 milliliters of water a day; fluids like tea and milk were counted in addition to water. This recommendation was the part of the protocol and it was carefully controlled.
Statistical analysis: software utilized: SPSS 20 Qualitative variables were expressed in percentages. Quantitative variables were analyzed with the test of Shapiro-Wilk. Continuous variables were expressed as median, 95% confidence intervals and interquartile intervals. Wilcoxon Signed Rank Test was also utilized P<0.05 was considered significant.

[2] = test system: patients with disabling intermittent claudication or rest pain of the lower extremities; remark: listed apart in the source
From the text: as §1, §2, §3, §4, §5

[3] = test system: patient with right foot rest pain and disabling claudication; conditions: Case 2; for walking distance without pain: three liters of fluid a day
From the text: A patient came to the consult with right foot rest pain, pallor and coldness up to the knee. […] Rest pain started one week before the consult and their claudication became disabling one month before. The patient was drinking less than 700 milliliters a day of fluids. […] Before proceeding to amputation, proper hydration was achieved. […] Three liters of fluid a day was recommended and the patient was discharged.

[4] = test system: patient with intermittent claudication of the lower extremities and abdominal angina; conditions: Case 1
Description: A person complaining of 10 step intermittent claudication of the lower extremities, abdominal angina that produced a 15 Kg weight loss, and an abnormal renal function with a creatinine of 3.1 mg per deciliter.
The patient was having intermittent claudication for years but in the last four months it became disabling.
On physical exam patient had no palpable pulses.
The patient was admitted, stool cultures performed and patient was rehydrated with precaution considering their heart condition. […] After four days the patient was discharged and asked to drink 2.5 liters of fluids a day.

**Q.** For O [water], which “pain intensity (final) Median” value ([1]; 0=no pain, 10=intense pain, CI 1 to 2.341, initial median 6 (6 to 8), p<0,0001) is on record?
**A.** 2

**Q.** What about the “final Median dorsal temperature of the first right toe after treatment” value ([1]; FIG. 5, median, 95% confidence interval 29.300 to 31.468, initial median 29.95 (28 to 31)) of the same compound?
**A.** 30.65

**Q.** What about the “final Median plantar temperature of the first right toe after treatment” value ([1]; FIG. 6, median, CI 28.464 to 30.302, initial median 28.50 (27.366 to 29.939), p:0.0347) of the same compound?
**A.** 29.25

**Q.** And the “Median temperature of the plantar aspect of the left foot after hydration” value ([1]; after 6 weeks of hydration, before 28.40 (26.82-30), p: 0.030)?
**A.** 29.20 (26.70-30.92) ° C.

**Q.** And the “Median temperature of the plantar aspect of the right foot after 6 weeks” value ([1]; after 6 weeks of hydration, before 28.70 (27-31), p: 0.011)?
**A.** 29 (27.70-31) ° C.

**Q.** What about the “Median temperature of the dorsum of the left foot after 6 weeks” value ([1]; after 6 weeks of hydration, before 29.40 (27.72-31.30), p: 0.009) of the same compound?
**A.** 30.20 (27.70-31.70) ° C.

**Q.** And the “Median temperature of the dorsum of the right foot after hydration” value ([1]; after 6 weeks of hydration, before protocol 29.95 (27.60-31.15), p: 0.02)?
**A.** 30.35 (28.12-31.60) ° C.

**Q.** And the “Decrease of pain sensation recorded, percentage of patients” value ([1]; after treatment)?
**A.** 91.7 % of patients

**Q.** And the “Patients with improvement of pain sensation of more than 50%” value ([1]; after treatment)?
**A.** 80 % of the patients

**Q.** And the “Median ankle/brachial index after 6 weeks of treatment” value ([1]; initial median 0.6 (0.50 to 0.69), p<0,0001)?
**A.** 0.75 (0.62 to 0.80)

**Q.** What about the “Final pain intensity sensation, patient 15” value ([1]; single patient 15, final intake of water 3000 ml, initial 6) of the same compound?
**A.** 0

**Q.** What about the “Distance to claudication (final), patient 15” value ([1]; single patient 15, final intake of water 3000 ml, initial 300 mts) of the same compound?
**A.** 6000 mts

**Q.** And the “Final ankle/brachial index, patient 15” value ([1]; single patient 15, final intake of water 3000 ml, initial index 0.77)?
**A.** 0.83

**Q.** What about the “distance to claudication, final Median” value ([1]; treadmill 3 miles per hour, end of 6 weeks, CI 382.947 to 800, initial median 100 (50 to 200), p<0.0001) of the same compound?
**A.** 535

**Q.** And the “Time to claudication after hydration, Median” value ([1]; treadmill, 95% CI 4.195 to 9.209, initial median 1.3 (0.7 to 2.500), p<0.0001)?
**A.** 6.3 min

**Q.** And the “status related to lower extremity ischemia” value ([2]; 35 patients in whom proper hydration was achieved)?
**A.** all of them improved

**Q.** And the “ulcers in the toes and ankle” value ([2]; anecdotal, drinking 3 liters of water a day)?
**A.** reversed the lesions

**Q.** And the “Time and distance to claudication, cutaneous temperature, ankle-brachial pressure and subjective pain sensation” value ([2]; patients who drank more than 2.5 liters of fluids a day (35 of the 36 patients))?
**A.** improved significantly

**Q.** And the “walking distance without pain” value ([3]; after seven months)?
**A.** walked four kilometers without pain

**Q.** What about the “walking distance without pain” value ([3]; after three months) of the same compound?
**A.** walked three blocks without pain

**Q.** And the “rest pain of the right foot” value ([3]; two days after proper hydration was achieved)?
**A.** pain subsided

**Q.** What about the “walking distance without pain” value ([4]; 14 months after last admission, 2.5 liters of fluids a day) of the same compound?
**A.** more than 4 blocks

**Q.** And the “walking distance without pain” value ([4]; after rehydration in hospital, second day)?
**A.** 50 meters
